These results are taken from patent US20230339916A1, “PLANT GROWTH REGULATOR COMPOUNDS” (SYNGENTA CROP PROTECTION AG, priority 2020, published 2023).

This test relates to Corn leaf discs (variety Multitop). The test is described as follows: Dark induced senescence of corn leaf. In kind it is in vivo. The conditions noted are these: Zea mays, foliar, 192 h; corn leaf discs in the dark, 23° C., 75% humidity, 8 days; 100 μM-0.0001 μM, 0.5% DMSO; image analysis; read-out: IC50 (concentration at which 50% senescence was achieved). On the procedure:
Corn plants of variety Multitop were grown in a greenhouse with relative 75% humidity and at 23-25° C. for 6 weeks. 1.4 cm diameter leaf discs were placed into 24-well plates containing test compounds in a concentration gradient (100 μM-0.0001 μM) at a final concentration of 0.5% DMSO. Each concentration was tested in 12 replicates. Plates were sealed with seal foil. The foil was pierced to provide gas exchange in each well. The plates were placed into the completely dark climatic chamber. Plates were incubated in the chamber with 75% humidity and at 23° C. for 8 days. On days 0, 5, 6, 7 and 8 photographs were taken of each plate, and image analysis conducted with a macro developed using the ImageJ software. The image analysis was used to determine the concentration at which 50% senescence was achieved (IC50), see Table 3. The lower the value, the higher senescence induction potency.
With `CNC(=O)/C(=C\OC1C=C(C)C(=O)O1)n1nnc2ccccc21` (centres unmarked) [Compound I-33-E, (E)-2-(benzotriazol-1-yl)-N-methyl-3-[(4-methyl-5-oxo-2H-furan-2-yl)oxy]prop-2-enamide], the IC50 was under 3 µM. The same measure for `CC1=CC(O/C=C(/C(=O)N(C)C)n2nnc3ccccc32)OC1=O` (centres unmarked) [Compound I-34-Z, (Z)-2-(benzotriazol-1-yl)-N,N-dimethyl-3-[(4-methyl-5-oxo-2H-furan-2-yl)oxy]prop-2-enamide]: under 3 µM. The same measure for `CCOC(=O)/C(=C/OC1OC(=O)C(C)=C1C)n1nnc2ccccc21` (centres unmarked) [Compound I-35-Z, ethyl (Z)-2-(benzotriazol-1-yl)-3-[(3,4-dimethyl-5-oxo-2H-furan-2-yl)oxy]prop-2-enoate]: under 3 µM. The figure for `CNC(=O)/C(=C/OC1OC(=O)C(C)=C1C)n1nnc2ccccc21` (centres unmarked) [Compound I-37-Z, (Z)-2-(benzotriazol-1-yl)-3-[(3,4-dimethyl-5-oxo-2H-furan-2-yl)oxy]-N-methyl-prop-2-enamide] is under 3 µM; for `CCOC(=O)/C(=C/OC1C=C(C)C(=O)O1)n1ncc2ccccc21` (centres unmarked) [Compound I-42-Z, ethyl (Z)-2-indazol-1-yl-3-[(4-methyl-5-oxo-2H-furan-2-yl)oxy]prop-2-enoate] it is under 3 µM; for `CC1=CC(O/C=C(/C#N)n2ncc3ccccc32)OC1=O` (centres unmarked) [Compound I-43-Z, (Z)-2-indazol-1-yl-3-[(4-methyl-5-oxo-2H-furan-2-yl)oxy]prop-2-enenitrile] it is under 3 µM.

As for `CCOC(=O)/C(=C/OC1OC(=O)C(C)=C1C)n1ncc2ccccc21` (centres unmarked) [Compound I-46-Z, ethyl (Z)-3-[(3,4-dimethyl-5-oxo-2H-furan-2-yl)oxy]-2-indazol-1-yl-prop-2-enoate], the IC50 is under 3 µM. The figure for `CC1=C(C)C(O/C=C(\C#N)n2ncc3ccccc32)OC1=O` (centres unmarked) [Compound I-47-E, (E)-3-[(3,4-dimethyl-5-oxo-2H-furan-2-yl)oxy]-2-indazol-1-yl-prop-2-enenitrile] is under 3 µM; for `CC1=C(C)C(O/C=C(/C#N)n2ncc3ccccc32)OC1=O` (centres unmarked) [Compound I-47-Z, (Z)-3-[(3,4-dimethyl-5-oxo-2H-furan-2-yl)oxy]-2-indazol-1-yl-prop-2-enenitrile] it is under 3 µM. `CCOC(=O)/C(=C/OC1C=C(C)C(=O)O1)n1nc(F)c2ccccc21` (centres unmarked) [Compound I-50-Z, ethyl (Z)-2-(3-fluoroindazol-1-yl)-3-[(4-methyl-5-oxo-2H-furan-2-yl)oxy]prop-2-enoate]: the IC50 was under 3 µM. `CCOC(=O)/C(=C/OC1OC(=O)C(C)=C1C)n1nc(F)c2ccccc21` (centres unmarked) [Compound I-51-Z, ethyl (Z)-3-[(3,4-dimethyl-5-oxo-2H-furan-2-yl)oxy]-2-(3-fluoroindazol-1-yl)prop-2-enoate]: the IC50 was under 3 µM. The same measure for `CCOC(=O)/C(=C/OC1C=C(C)C(=O)O1)n1cnc2ccccc21` (centres unmarked) [Compound I-56-Z, ethyl (Z)-2-(benzimidazol-1-yl)-3-[(4-methyl-5-oxo-2H-furan-2-yl)oxy]prop-2-enoate]: under 3 µM. The figure for `CCOC(=O)/C(=C/OC1OC(=O)C(C)=C1C)n1cnc2ccccc21` (centres unmarked) [Compound I-57-Z, ethyl (Z)-2-(benzimidazol-1-yl)-3-[(3,4-dimethyl-5-oxo-2H-furan-2-yl)oxy]prop-2-enoate] is under 3 µM; for `CCOC(=O)/C(=C/OC1OC(=O)C(C)=C1C)n1c(C)nc2ccccc21` (centres unmarked) [Compound I-59-Z, ethyl (Z)-3-[(3,4-dimethyl-5-oxo-2H-furan-2-yl)oxy]-2-(2-methylbenzimidazol-1-yl)prop-2-enoate] it is under 3 µM; for `CCOC(=O)/C(=C/OC1C=C(C)C(=O)O1)n1cnc2c(N(C)C)nc(F)nc21` (centres unmarked) [Compound I-60-Z, ethyl (Z)-2-[6-(dimethylamino)-2-fluoro-purin-9-yl]-3-[(4-methyl-5-oxo-2H-furan-2-yl)oxy]prop-2-enoate] it is under 3 µM. The figure for `CCOC(=O)/C(=C/OC1OC(=O)C(C)=C1C)n1cnc2c(N(C)C)nc(F)nc21` (centres unmarked) [Compound I-61-Z, ethyl (Z)-2-[6-(dimethylamino)-2-fluoro-purin-9-yl]-3-[(3,4-dimethyl-5-oxo-2H-furan-2-yl)oxy]prop-2-enoate] is under 3 µM; for `CCOC(=O)/C(=C/OC1C=C(C)C(=O)O1)n1ccc2cncnc21` (centres unmarked) [Compound I-62-Z, ethyl (Z)-3-[(4-methyl-5-oxo-2H-furan-2-yl)oxy]-2-pyrrolo[2,3-d]pyrimidin-7-yl-prop-2-enoate] it is under 3 µM; for `CCOC(=O)/C(=C/OC1C=C(C)C(=O)O1)n1c(=O)sc2ccccc21` (centres unmarked) [Compound I-64-Z, ethyl (Z)-3-[(4-methyl-5-oxo-2H-furan-2-yl)oxy]-2-(2-oxo-1,3-benzothiazol-3-yl)prop-2-enoate] it is under 3 µM. As for `CCOC(=O)/C(=C/OC1OC(=O)C(C)=C1C)n1c(=O)sc2ccccc21` (centres unmarked) [Compound I-65-Z], the IC50 is under 3 µM.

Regarding `CCOC(=O)/C(=C/OC1C=C(C)C(=O)O1)N1C(=O)C2(CC2)c2ccccc21` (centres unmarked) [Compound I-66-Z, ethyl (Z)-3-[(4-methyl-5-oxo-2H-furan-2-yl)oxy]-2-(2′-oxospiro[cyclopropane-1,3′-indoline]-1′-yl)prop-2-enoate], the IC50 is under 3 µM. On to `CCOC(=O)/C(=C/OC1OC(=O)C(C)=C1C)N1C(=O)C2(CC2)c2ccccc21` (centres unmarked) [Compound I-67-Z, ethyl (Z)-3-[(3,4-dimethyl-5-oxo-2H-furan-2-yl)oxy]-2-(2′-oxospiro[cyclopropane-1,3′-indoline]-1′-yl)prop-2-enoate], for which the IC50 is under 3 µM. Consider `CCOC(=O)/C(=C/OC1C=C(C)C(=O)O1)n1c(=O)oc2ccccc21` (centres unmarked) [Compound I-68-Z, ethyl (Z)-3-[(4-methyl-5-oxo-2H-furan-2-yl)oxy]-2-(2-oxo-1,3-benzoxazol-3-yl)prop-2-enoate], for which the IC50 is under 3 µM. For the molecule `CCOC(=O)/C(=C/OC1OC(=O)C(C)=C1C)n1c(=O)oc2ccccc21` (centres unmarked) [Compound I-69-Z, ethyl (Z)-3-[(3,4-dimethyl-5-oxo-2H-furan-2-yl)oxy]-2-(2-oxo-1,3-benzoxazol-3-yl)prop-2-enoate], the IC50 was under 3 µM. The figure for `CCOC(=O)/C(=C/OC1C=C(C)C(=O)O1)N1CCc2ccccc21` (centres unmarked) [Compound I-70-Z, ethyl (Z)-2-indolin-1-yl-3-[(4-methyl-5-oxo-2H-furan-2-yl)oxy]prop-2-enoate] is under 3 µM; for `CCOC(=O)/C(=C/OC1C=C(C)C(=O)O1)N1CCc2cc(Br)ccc21` (centres unmarked) [Compound I-72-Z, ethyl (Z)-2-(5-bromoindolin-1-yl)-3-[(4-methyl-5-oxo-2H-furan-2-yl)oxy]prop-2-enoate] it is under 3 µM. The figure for `CCOC(=O)/C(=C/OC1OC(=O)C(C)=C1C)N1CCc2cc(Br)ccc21` (centres unmarked) [Compound I-73-Z, ethyl (Z)-2-(5-bromoindolin-1-yl)-3-[(3,4-dimethyl-5-oxo-2H-furan-2-yl)oxy]prop-2-enoate] is under 3 µM; for `CCOC(=O)/C(=C/OC1C=C(C)C(=O)O1)N1C(=O)CSc2ccccc21` (centres unmarked) [Compound I-78-Z, ethyl (Z)-3-[(4-methyl-5-oxo-2H-furan-2-yl)oxy]-2-(3-oxo-1,4-benzothiazin-4-yl)prop-2-enoate] it is under 3 µM. The same measure for `CCOC(=O)/C(=C/OC1OC(=O)C(C)=C1C)N1C(=O)CSc2ccccc21` (centres unmarked) [Compound I-79-Z, ethyl (Z)-3-[(3,4-dimethyl-5-oxo-2H-furan-2-yl)oxy]-2-(3-oxo-1,4-benzothiazin-4-yl)prop-2-enoate]: under 3 µM. Take `CCOC(=O)/C(=C/OC1C=C(C)C(=O)O1)n1nc(C)c(C)c1C` (centres unmarked) [Compound I-80-Z, ethyl (Z)-3-[(4-methyl-5-oxo-2H-furan-2-yl)oxy]-2-(3,4,5-trimethylpyrazol-1-yl)prop-2-enoate]: the IC50 is under 3 µM. Turning to `CCOC(=O)/C(=C/OC1OC(=O)C(C)=C1C)n1nc(C)c(C)c1C` (centres unmarked) [Compound I-81-Z, ethyl (Z)-3-[(3,4-dimethyl-5-oxo-2H-furan-2-yl)oxy]-2-(3,4,5-trimethylpyrazol-1-yl)prop-2-enoate], the IC50 is under 3 µM. Take `CNC(=O)/C(=C/OC1C=C(C)C(=O)O1)n1cc(C#N)c2ccccc21` (centres unmarked) [Compound I-82-Z, (Z)-2-(3-cyanoindol-1-yl)-N-methyl-3-[(4-methyl-5-oxo-2H-furan-2-yl)oxy]prop-2-enamide]: the IC50 is under 3 µM.

For the molecule `CNC(=O)/C(=C/OC1OC(=O)C(C)=C1C)n1cc(C#N)c2ccccc21` (centres unmarked) [Compound I-83-Z, (Z)-2-(3-cyanoindol-1-yl)-3-[(3,4-dimethyl-5-oxo-2H-furan-2-yl)oxy]-N-methyl-prop-2-enamide], the IC50 is under 3 µM. The same measure for `CC1=CC(O/C=C(/C(=O)N(C)C)n2cc(C#N)c3ccccc32)OC1=O` (centres unmarked) [Compound I-86-Z, (Z)-2-(3-cyanoindol-1-yl)-N,N-dimethyl-3-[(4-methyl-5-oxo-2H-furan-2-yl)oxy]prop-2-enamide]: under 3 µM; for `CCOC(=O)/C(=C/OC1OC(=O)C(C)=C1OC)n1cc(C#N)c2ccccc21` (centres unmarked) [Compound I-88-Z, ethyl (Z)-2-(3-cyanoindol-1-yl)-3-[(3-methoxy-4-methyl-5-oxo-2H-furan-2-yl)oxy]prop-2-enoate]: under 3 µM. In the case of `CCOC(=O)/C(=C/OC1OC(=O)C(C)=C1C)n1ccc2nccnc21` (centres unmarked) [Compound I-90-Z, ethyl (Z)-3-[(3,4-dimethyl-5-oxo-2H-furan-2-yl)oxy]-2-pyrrolo[2,3-b]pyrazin-5-yl-prop-2-enoate], the IC50 is under 3 µM.
